Experimental data reported in the NIST ThermoML archive (doi:10.1021/je0341918).

Assay: molar heat capacity at constant pressure; xn = mol fraction of the nth substance listed
Conditions: 101.3 kPa, Liquid, Small sample (50 mg) DSC

OCCCCO [1,4-butanediol] + O
molar heat capacity at constant pressure [J/K/mol]
Conditions	x1 = 0.0218	x1 = 0.0478	x1 = 0.0789	x1 = 0.1175	x1 = 0.1665	x1 = 0.2305	x1 = 0.4441	x1 = 0.6426	x1 = 1
293.15 K	88.5	97.3	103.9	111.8	120.1	129	138.7	169.3	198.2
303.15 K	89.3	97.7	104.8	112.7	121.3	130.4	140.8	173.3	203.6
313.15 K	88.8	98.1	105.5	113.8	122.4	131.8	142.7	177.1	208.8
323.15 K	88.9	98.5	106.2	114.8	123.5	133.1	144.6	180.7	214
333.15 K	89.2	99.1	107.3	116	125	135.1	147.3	185.7	221.3
343.15 K	89.1	99.6	108.3	117.2	126.5	137	149.9	190.8	228.6
353.15 K	89.3	100.2	109.3	118.5	128.1	139.2	152.9	196.4	236.9
